Assay results as given in article PMC3272276 (The Journal of Organic Chemistry, 2010).

Test system: Candida albicans
Assay: Antifungal activity
Type: cell-based

mutremdamide A
inhibition of growth of Candida albicans (in words): None of the koshikamides or mutremdamide A inhibited the growth

theonellamide A
inhibition of growth of Candida albicans (in words): antifungal activity of the extracts was traced to the known peptide theonellamide A
